The values that follow come from US12605397B2, “Deoxy-cytidine or uridine derivatives for use in cancer therapies” (HEMISPHERIAN AS, priority 2019, dated 2026).

The term pIC50 denotes the IC50 on a negative log10 scale, so that one unit is a factor of ten.

pIC50: −log10 of the molar value. “Also recorded” adds a separate entry of the source. Read-outs that look alike come from different tables or passages of the source. Where only a bound is given, the exact number is not on record here.

In one series the test system is A549 cells. The experiment in a line: Survival assay (MTT), A549. To be noted: Homo sapiens. It is filed as cell-based, human. How it is done:
(§1) Cells were passed between 70 and 90% confluence.
(§2) Cells were incubated with the drugs for 72 hours.

Another series deals with V79 cells. The experiment in a line: Survival assay (MTT), V79. The series is classed as cell-based. To be noted: Cricetulus griseus, V79, Chinese Hamster Lung, 72 hours. Here is the method:
as §1, §2

For the next series, the system named is A-498 cells. The experiment in a line: Survival assay (MTT), A-498. To be noted: Homo sapiens. The series is classed as cell-based, human. How it is done:
as §1, §2

For the next series, the system named is Buffy M cells. The experiment in a line: Survival assay (MTT), Buffy M. To be noted: Homo sapiens, Normal, Bone Marrow, 72 hours. The series is classed as cell-based, human. How it is done: as §1, §2
(§3) The present inventors further investigated the extent to which these compounds kill normal human cells; low cytotoxicity against normal human cells is advantageous property for anti-cancer agents. The cytotoxicity of these compounds in various normal human cell lines was therefore investigated (Table 3). Cells were grown and the survival assay was performed as described above (Materials and Methods).

For series [1] the following is noted: mouse, in vivo, ip. How it is done:
5-hydroxymethyl-2′-deoxycytidine and 5-formyl-2′-deoxycytidine (Berry and Associates), were formulated in dimethyl sulfoxide (DMSO)/Solutol (RTM) R HS15/phosphate buffered saline (PBS) (5/5/90, v/v/v) at the concentration of 30 and 200 and 400 mg/mL for IP administration at the dosing volume of […]. A dosing volume at 10 or 20 ml/kg was applied.
Male ICR mice weighing 23±3 g were provided by BioLasco Taiwan (under Charles River Laboratories Licensee). […] All animals were maintained in a hygienic environment with controlled temperature (20-24° C.), humidity (30%-70%) and 12 hours light/dark cycles. Free access to sterilized standard lab diet [MFG (Oriental Yeast Co., Ltd., Japan)] and autoclaved tap water were granted.
5-hydroxymethyl-2′-deoxycytidine and 5-formyl-2′-deoxycytidine were administered IP to groups of three male ICR mice weighing 23±3 g. Animals received an initial dose of 300 mg/kg. If the animals survived for 72 hours, the dose for the next cohort was increased. If one or more animals died, the dose for the next cohort was decreased. The testing stopped when all animals survived at the upper bound, or when three dose levels had been tested or when the upper or lower bound had been reached. […] Body weights were recorded pre-dose and at 72 hours. […] Gross necropsy was performed on all animals without tissue collection, and the next dose level was determined based on the study design table.
The maximum tolerated dose (MTD) of these compounds in mice was determined as described above (Materials and Methods). […] While the end-point of the study was survival after 72 hours, the presence of acute toxic symptoms (mortality, convulsions, tremors, muscle relaxation, sedation, etc.) and autonomic effects (diarrhea, salivation, lacrimation, vasodilation, piloerection, etc.) in the animals was monitored during the first 30 minutes, and again at 1, 24, 48 and 72 hours. Body weights were recorded pre-dose and at 72 hours.

A further series deals with human cancer cell lines. Put plainly: Survival assay, range of human cancer cell lines. The series is classed as cell-based. To be noted: cell lines of Table 1. How it is done:
as §2
With the knowledge that 5-formyl-2′-deoxycytidine is cytotoxic to cervical carcinoma (HeLa) cells, the study was expanded in two directions: (i) a further compound was assessed: 5-carboxyl-2′-deoxycytidine; and (ii) their cytotoxic effects against a wide range of human cancer cell lines was assessed (Table 1).

Series [2] is described as follows: Multiple MTD, repeated dose. The series is classed as in vivo. To be noted: mice, IP 300, 1000, 2000 mg/kg every three days, 5 doses. Here is the method:
The test compounds were dosed every three days for a total of 5 doses (q3dx5).
In addition, body weights were recorded before each treatment and at 24, 48 and 72 hours after the final administration.
Mice were injected with the indicated compound at the indicated dose intraperitoneally once every three days for a total of 5 doses.

The subject of a further series is Buffy A cells. Put plainly: Survival assay (MTT), Buffy A. The series is classed as cell-based, human. The following applies: Homo sapiens, Normal, Bone Marrow, 72 hours. Here is the method: as §1, §2, §3
The subject of the next series is G7 cells. The experiment in a line: Survival assay (MTT), G7. It is filed as cell-based, human. The following applies: Homo sapiens, G7, Glioma, Grade IV, 72 hours. How it is done:
Primary glioma neural stem (GNS) cells (G7, G14, G144, G166) were cultured on poly-D-lysine (Merck Millipore, Cat. Nr. A-003-E) and laminin (R&D Systems, Cat.Nr. 3446-005-01) coated plates in neural stem cell medium (50% DMEM-F12 (Thermofisher, Cat. Nr. 21041025), 50% neurobasal medium (Thermofisher, Cat. Nr. 10888-022), N2 (Life Technologies, Cat. Nr. A-003-E) and B27 supplements (Life Technologies, Cat.Nr. 12587010), 1 mM sodium pyruvate (Life Technologies, Cat.Nr. 11360-039), 2 mM glutamax (Life Technologies, Cat. Nr. 35050038), 1 mM HEPES (Fisher Scientific, Cat. Nr. BP299-1), 0.1 mM β-mercaptoethanol (Life Technologies, Cat. Nr. 31350010), 1× nonessential amino acids (Life Technologies, Cat. Nr. 11140-035), 0.006% bovine serum albumin (Sigma, Cat. Nr. A8577-10ML), 4 μg/ml heparin (Sigma, Cat. Nr. H3149-25KU), 100 U/ml penicillin, 100 μg/ml streptomycin, 20 ng/ml hEGF (R&D Systems, Cat. Nr. 236-EG-200), 10 ng/ml bFGF (Peprotech, Cat. Nr. 100-18B).
as §2

Series [3] concerns normal (non-cancerous) human cell lines. The experiment in a line: Survival assay, panel of normal (non-cancerous) human cell lines. It is filed as cell-based. The following applies: normal human cell lines of Table 3. How it is done: as §2, §3
The test system of series [4] is Hypoxanthine-guanine phosphoribosyltransferase (HPRT) gene in V79 cells. Put plainly: HPRT mutagenicity assay. It is filed as cell-based, Chinese Hamster. To be noted: V79 cells, 1, 10, 100 μM, 24 hours. How it is done: HPRT mutagenicity assay was performed in V79 cells. 50,000 V79 cells were treated with three different concentrations of either d5hmC or d5fC (1, 10, 100 μM) for 24 hours in a 6 well plate. DMSO was used as a negative control. After the treatment, the cells were subcultured as needed in T75 flasks for 9 days to allow expression of HPRT-mutants. 10,000 cells were replated into 10 replica Petri dishes (100×15 mm) with selective media (2.5 μg/ml of 6TG).
Survival (relative plating efficiency) was determined by plating 200 cells into four replica Petri dishes (60×15 mm) without selective media. Colonies were fixed, Giemsa-stained and counted 7 days later. The mutant frequency is expressed as a total number of mutants counted on all plates divided by the number of cells seeded corrected by reseeding plating efficiency. Experiment was performed three times, data represent mean of triplicate±SEM.

Another series has as its system Buffy C cells. The experiment in a line: Survival assay (MTT), Buffy C. It is filed as cell-based, human. To be noted: Homo sapiens, Normal, Bone Marrow, 72 hours. Here is the method:
as §1, §2, §3

Where [5] appears, read: A549, 72 h, A549, Lung Carcinoma, 72 hours, MTT.
The mark [6] stands for this setting: A549, A549, Tables 6 and 7, unit inferred.
The mark [7] stands for this setting: A498, 72 h, A-498, Kidney Carcinoma, 72 hours, MTT.
The mark [8] stands for this setting: A498, A-498, Tables 6 and 7, unit inferred.

In the case of `Nc1nc(=O)n([C@H]2C[C@H](O)[C@@H](CO)O2)cc1CO` [2d5hmC, 5-hydroxymethyl-2′-deoxycytidine], the pIC50 with A549 cells (setting [5]) is under 4.60; in the series on A549 cells (setting [6]), at most 4.60; in the series with V79 cells, under 4.60; in the series with A-498 cells (setting [7]), under 4.60; in the series with A-498 cells (setting [8]), at most 4.60; in the series with Buffy M cells it was under 4.60. Moreover, the figures for the pIC50 with Buffy A cells, in the series with G7 cells and with Buffy C cells were under 4.60, 4.92 and under 4.60, respectively. In addition, the “tolerability of a single dose” value is “can tolerate” in series [1] (300 mg/kg), “can tolerate” in [1] (2000 mg/kg) and “unable to tolerate” in series [1] (8000 mg/kg). Also, the “cytotoxicity in the cancer cell lines evaluated” value in the series on human cancer cell lines is “only cytotoxic to two cell lines evaluated”. The “body weight compared with untreated animals” value in series [2] was “not statistically different”. The “cytotoxicity to normal cell lines” value in series [3] was “not cytotoxic to any of the normal cell lines evaluated”. Besides, in series [4], the “mutagenicity / genotoxicity (HPRT mutant frequency)” value is “not to be mutagenic; also recorded: not mutagens”.
Consider `Nc1nc(=O)n([C@H]2C[C@H](O)[C@@H](CO)O2)cc1C=O` [2d5fC, 5-formyl-2′-deoxycytidine], for which the pIC50 is under 4.60 with A549 cells (setting [5]); at most 4.60 with A549 cells (setting [6]); under 4.60 in the series with V79 cells; under 4.60 in the series on A-498 cells (setting [7]); at most 4.60 in the series on A-498 cells (setting [8]); under 4.60 in the series with Buffy M cells. Also, the pIC50 was under 4.60 with Buffy A cells, 4.72 with G7 cells and under 4.60 with Buffy C cells. In addition, the “tolerability of a single dose” value in [1] (300 mg/kg) is reported as “can tolerate”; in series [1] (2000 mg/kg) it was “can tolerate”; in series [1] (8000 mg/kg), “unable to tolerate”. Besides, in the series with human cancer cell lines, the “cytotoxicity in the cancer cell lines evaluated” value was “cytotoxic to a wide range of human cancer cells”. Moreover, the “body weight compared with untreated animals” value in series [2] is listed as “not statistically different”. In addition, the “cytotoxicity to normal cell lines” value in series [3] is “cytotoxic only to one normal human cell line”. Besides, the “mutagenicity / genotoxicity (HPRT mutant frequency)” value in series [4] is recorded as “not to be mutagenic; also recorded: not mutagens”.
For the molecule `Cn1nnc2c(C(N)=O)ncn2c1=O` [Temozolomide, 4-methyl-5-oxo-2,3,4,6,8-pentazabicyclo[4.3.0]nona-2,7,9-triene-9-carboxamide, reference compound], the values for the pIC50 in the series with A549 cells (setting [5]), in the series on A-498 cells (setting [7]) and with G7 cells were 5.99, under 4.60 and 5.21, respectively.
